Where two headings read alike, the source gives them in different places.
How the values were obtained:
[1] = cited from earlier work; for Charge: valency of cationic weak base, 0 = uncharged
[2] = Equilibrium loading (uptake) of drugs into microgels; assay type: physicochemical; details: pH 7.0, PLURONIC-PAA microgels XL = 1 mol %
Method: A microgel was suspended in Tris buffer (5 mM, pH 7.0) and 50 μL of the suspension (2 mg gel/mL buffer) was equilibrated with 3.0 mM stock solution of a drug (450 μL) for 16 h while shaking 44, 45. Shaking was performed using a KS 10 orbital shaker (BEA-Enprotech Corp., Hyde Park, Mass.) in an environmental chamber at 37° C. […] Deionized water was used as a mobile phase (flow rate, 1 mL/min, injection volume, 25 μL), and detection was carried out at 365 nm 47. […] The U values were measured in triplicate for each drug and for each temperature, pH, and gel, respectively. […] This ensured equilibrium U values. […] The beads were separated into several fractions. […] Then the beads were recovered from the suspension by using a magnet. […] The control fraction of loaded beads was subjected to the extraction without equilibration with the microgel suspension.

Caco-2 monolayers = assay: Transepithelial transport of doxorubicin across Caco-2 monolayers; assay type: in vitro ADME; details: doxorubicin 3 μM in donor, no further additive in DMEM
Method: (§1) The drug-containing samples for the transport experiments were prepared as follows. […] The suspension was centrifuged at 8000×g for 0.5 h and the supernatant was removed. The pellet was weighed and resuspended in fresh portion of serum-free DMEM of a known weight. Known amount of doxorubicin and Pluronic were dissolved in the suspension, which was allowed to equilibrate at 37° C. overnight, then snap-frozen and lyophilized. The powders were kept at −70° C. Before the transport experiments, a known amount of powder was reconstituted in DMEM and was allowed to equilibrate at 37° C. overnight.
(§2) Cells were seeded at a density of (2-4)×10^4 cells/cm^2 on top of Transwell™ polycarbonate filters (pore size, 0.4 μm; diameter, 24.5 mm; growth area, 4.71 cm^2) from Costar (Cambridge, Mass.). The cells were grown for 3 weeks prior to the transport experiments and trans-epithelial electrical resistance (TEER) was measured using a Millicell-ERS device (Millipore, Bedford, Mass.) equipped with rod-shaped electrodes. The TEER data were corrected for background readings contributed by the blank filter and culture medium. […] Then the monolayers were rinsed twice by serum-free DMEM and the transport experiment commenced by replacing the medium at either the basolateral or the apical side of the monolayer with 2.5 mL of the serum-free DMEM containing doxorubicin (with or without microgels, see Table 3). Simultaneously, the medium on the other side was refreshed. The monolayers were incubated at 37° C. in 10% CO2 atmosphere. Samples of 200 μL were taken from each side intermittently, and the drug concentration was measured in the samples withdrawn from the side opposite to the side of the drug application. The volumes withdrawn were immediately replaced with equal volumes of serum-free DMEM pre-equilibrated at 37° C. Each experiment was repeated four times. […] Additionally, the concentration of doxorubicin in the medium was measured by HPLC using a Capcell Pak UG C18 (100×4.6 mm I.D., particle size 5 μm) column and a Universal Guard Cartridge System (Phenomenex, Torrance, Calif.). […] Water/acetonitrile (70/30, pH 4) was used as the mobile phase (flow rate, 1 mL/min, injection volume, 5 μL), and detection was carried out using an Argon Ion laser (488 nm, 10 mW). […] Temperature was controlled to ±0.05 C using a circulating water bath. The platinum Wilhelmy plate was washed with acetone, rinsed in Milli-Q water, and flamed until red-hot before each measurement.
(§3) The apparent permeability of the Caco-2 monolayer (Pa, cm/s) was calculated from the linearized time course of the doxorubicin fractional transport (dI1t/dt in the fluorescence assay and dCt/dt in the HPLC assay) normalized to the effective surface area of the filter (A=4.71 cm^2) and the initial fluorescence emission intensity reading (Io) or initial doxorubicin concentration (Co) in the donor (basolateral or apical) compartment of volume V=2.5 cm^3: [formula]

[3] = as above; assay type: in vitro ADME; details: human
Method: as §1, §2, §3

[4] = Dynamic dialysis without microgels: permeability of the dialysis membrane to free solutes; assay type: physicochemical; details: through dialysis membrane, no microgel, from mean K and membrane thickness (eqn 3)
From the text: Drug release from microgels loaded with either DCTAF-labeled PLURONIC® or doxorubicin was studied using the dynamic dialysis technique of Gupta, P. K., et al., J. Pharm. […] A Teflon-made, thermostatted dynamic dialyzer consisted of two chambers, separated by a dialysis membrane (cellulose ester, working area A=0.35 cm^2, molecular weight cut-off 100 kDa, Spectrum Laboratories). […] Concentration of the drug in the receiver solution was monitored online by passing through a thermostatted quartz cuvette (path length 1.0 cm). […] The dialyzer was maintained at 37° C. by submersion in a water bath. The flow rate through the receiver chamber was maintained at 1.5 mL/min. […] The total volume of the receiver solution (Vr), including the chamber, cuvette, and 0.093″ tubing, was 98 mL in all experiments.
Permeability of the dialysis membrane was determined by loading a certain amount (qf^0) of either doxorubicin or PLURONIC® solution into the feed chamber and measuring the kinetics of release. […] The membrane thickness (δ) was measured microscopically in the receiver solution upon completion of the dialysis experiment and was typically in the order of 100 μm. […]
In the control experiments, we measured permeability of the dialysis membrane for doxorubicin and PLURONIC® L61 without loading into microgels. […]

| SMILES | Charge [1] | Uptake ± SD ([2]; 37° C.) | Log P (n-octanol-to-water partition coefficient) [1] | Pa, a→b, fluorescence assay (Caco-2 monolayers) | Papp A→B at 3 μM ([3]; Caco-2, doxorubicin 3 μM in donor, no further additive in DMEM, read-out: Pa, a→b, HPLC assay) [×10⁻⁶ cm/s] | Papp B→A at 3 µM ([3]; Caco-2, doxorubicin 3 μM in donor, no further additive in DMEM, read-out: apparent permeability, b→a, HPLC assay) [×10⁻⁶ cm/s] | Papp B→A at 3 µM ([3]; Caco-2, doxorubicin 3 μM in donor, no further additive in DMEM, read-out: apparent permeability, b→a, fluorescence assay) [×10⁻⁶ cm/s] | efflux ratio ([3]; Caco-2, no additives, read-out: active efflux exceeding the passive influx) | effective diffusion coefficient (D) [4] | Uptake ± SD ([2]; 20° C.) |
| --- | --- | --- | --- | --- | --- | --- | --- | --- | --- | --- |
| CO[C@@]12[C@H](COC(N)=O)C3=C(C(=O)C(C)=C(N)C3=O)N1C[C@@H]1N[C@@H]12 [Mitomycin C] | 3 | 5.31 ± 1.86 (37° C.) mmol/g |  |  |  |  |  |  |  |  |
| O=C1c2c(O)ccc(O)c2C(=O)c2c(NCCNCCO)ccc(NCCNCCO)c21 [Mitoxantrone] |  | 3.70 ± 0.56 (37° C.) mmol/g |  |  |  |  |  |  |  |  |
| COc1cccc2c1C(=O)c1c(O)c3c(c(O)c1C2=O)C[C@@](O)(C(=O)CO)C[C@@H]3O[C@H]1C[C@H](N)[C@H](O)[C@H](C)O1 [Doxorubicin] | 1 | 2.26 ± 0.37 (37° C.) mmol/g | 1.85 | (6.07±0.04)×10^−7 cm/s | 0.579 | 2.75 | 2.81 | 4.6 | 2.4×10^−5 cm^2/s | 2.97 ± 0.33 (20° C.) mmol/g |

From patent publication US20080003288A1, “Responsive microgel and methods related thereto” (Supratek Pharma Inc., priority 2002, published 2008)
